Test results: ChEMBL document CHEMBL1201862, “PubChem BioAssay data set” (2004)
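In this assay, cells in 96-well plates receive the compound at five concentrations for 48 hours. Endpoints are linearly interpolated between the surrounding concentrations. GI50 = concentration required for 50% inhibition of growth.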 Activity calls are given as the source filed them. Cut-off read from the data, not from the text of the source: active = GI50 up to about 1.1 µM and inactive = higher.

What was measured:
Assay in all cases: growth of human tumour cells (NCI), 48 h
OVCAR-4 = tested on: OVCAR-4
CAKI-1 = tested on: CAKI-1
EKVX = tested on: EKVX
COLO 205 = tested on: COLO 205
LOX IMVI = tested on: LOX IMVI
HCT-116 = tested on: HCT-116
SNB-75 = tested on: SNB-75
NCI-H460 = tested on: NCI-H460
SK-MEL-28 = tested on: SK-MEL-28
SN12C = tested on: SN12C
K562 = tested on: K562
MOLT-4 = tested on: MOLT-4
Malme-3M = tested on: Malme-3M
HT-29 = tested on: HT-29
SNB-19 = tested on: SNB-19
KM12 = tested on: KM12
SK-MEL-5 = tested on: SK-MEL-5
SR = tested on: SR

Measured: GI50

CCOC(=O)NC(=O)c1cn(CCCO)c(=O)[nH]c1=O
inactive: OVCAR-4 > 100 µM | CAKI-1 > 100 µM | EKVX > 100 µM | COLO 205 > 100 µM | LOX IMVI > 100 µM | HCT-116 > 100 µM | SNB-75 45.6 µM | NCI-H460 > 100 µM | SK-MEL-28 > 100 µM | SN12C > 100 µM | K562 > 100 µM | MOLT-4 > 100 µM | Malme-3M > 100 µM | HT-29 > 100 µM | SNB-19 > 100 µM | KM12 > 100 µM | SK-MEL-5 > 100 µM

CN(C)CC1CCCC(CN(C)C)C1=NOC(=O)c1ccccc1 (stereo not given)
inactive: EKVX > 100 µM | COLO 205 > 100 µM | LOX IMVI > 100 µM | HCT-116 > 100 µM | SNB-75 > 56.5 µM | NCI-H460 > 100 µM | SK-MEL-28 > 100 µM | SR > 100 µM | SN12C > 100 µM | K562 > 100 µM | MOLT-4 > 100 µM | Malme-3M > 100 µM | HT-29 > 100 µM | SNB-19 > 100 µM | KM12 > 100 µM | SK-MEL-5 > 100 µM

CCOC(=O)C12CCCC1(O)N(NC(=O)OC)C(C)=C2C(=O)OC (stereo not given)
inactive: OVCAR-4 > 100 µM | CAKI-1 > 100 µM | EKVX > 100 µM | COLO 205 > 100 µM | LOX IMVI > 100 µM | HCT-116 > 100 µM | NCI-H460 > 100 µM | SK-MEL-28 > 100 µM | SN12C > 100 µM | K562 > 100 µM | MOLT-4 > 100 µM | Malme-3M > 100 µM | HT-29 > 100 µM | SNB-19 > 100 µM | KM12 > 10 µM

CSc1nc(NC2OCC(OC(C)=O)C(OC(C)=O)C2OC(C)=O)c2c(OC(C)=O)c(C)c(=O)oc2n1 (stereo not given)
inactive: OVCAR-4 > 100 µM | CAKI-1 > 100 µM | EKVX > 100 µM | COLO 205 > 100 µM | LOX IMVI > 100 µM | HCT-116 > 100 µM | SNB-75 > 100 µM | NCI-H460 > 100 µM | SN12C > 100 µM | K562 > 100 µM | MOLT-4 > 100 µM | Malme-3M > 100 µM | HT-29 > 100 µM | SNB-19 > 100 µM | KM12 > 100 µM | SK-MEL-5 > 100 µM

CC1=C(C)C(=O)c2c(cc3ccc4ccccc4n23)C1=O
inactive: OVCAR-4 > 100 µM | EKVX > 100 µM | COLO 205 > 100 µM | LOX IMVI > 100 µM | SNB-75 > 100 µM | NCI-H460 > 100 µM | SK-MEL-28 > 100 µM | SR > 100 µM | SN12C > 100 µM | K562 > 100 µM | MOLT-4 > 100 µM | Malme-3M > 100 µM | HT-29 > 100 µM | SNB-19 > 100 µM | KM12 > 100 µM | SK-MEL-5 > 100 µM

CC1CCP(=O)(c2ccccc2)CC1 (stereo not given)
inactive: OVCAR-4 > 100 µM | CAKI-1 > 100 µM | EKVX > 100 µM | COLO 205 > 100 µM | LOX IMVI > 100 µM | SNB-75 > 100 µM | NCI-H460 > 100 µM | SK-MEL-28 > 100 µM | SN12C > 100 µM | K562 > 100 µM | MOLT-4 > 100 µM | Malme-3M > 100 µM | HT-29 > 100 µM | SNB-19 > 100 µM | KM12 > 100 µM | SK-MEL-5 > 100 µM

O=C(O)c1ccccc1NS(=O)(=O)c1ccc([N+](=O)[O-])cc1
inactive: OVCAR-4 > 100 µM | CAKI-1 > 100 µM | EKVX > 100 µM | COLO 205 > 100 µM | LOX IMVI > 100 µM | HCT-116 > 100 µM | SNB-75 > 100 µM | NCI-H460 > 100 µM | SK-MEL-28 > 100 µM | SN12C > 100 µM | K562 > 100 µM | MOLT-4 > 100 µM | Malme-3M > 100 µM | HT-29 > 100 µM | SNB-19 > 100 µM | KM12 > 100 µM | SK-MEL-5 > 100 µM

CCOC(=O)N1C(=O)C2C3C=CC(C2C1=O)C1C2C(=O)N(C(=O)OCC)C(=O)C2C31 (stereo not given)
inactive: OVCAR-4 > 100 µM | CAKI-1 > 100 µM | EKVX > 100 µM | COLO 205 98.9 µM | LOX IMVI > 46.6 µM | HCT-116 > 39.5 µM | SNB-75 > 92 µM | NCI-H460 > 42.7 µM | SK-MEL-28 > 100 µM | SN12C > 100 µM | K562 > 100 µM | MOLT-4 > 100 µM | Malme-3M > 100 µM | HT-29 > 100 µM | SNB-19 > 100 µM | KM12 > 100 µM | SK-MEL-5 > 100 µM
